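Step 1: Grow cells in 96-well plates. Step 2: Expose to compound for 48 hours at 5 concentrations. Step 3: Interpolate endpoints linearly; if unreached, use highest concentration. At the GI50, growth is halved.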 Activity calls are given as the source filed them. Cut-off read from the data, not from the text of the source: active = GI50 up to about 1.1 µM and inactive = higher.
Columns and labels:
Experiment in all cases: DTP human tumour cell line panel, 48 h
[1] = system: KM12
[2] = system: RXF 393
[3] = system: SK-MEL-2
[4] = system: SF-295
[5] = system: A498
[6] = system: OVCAR-8
[7] = system: SF-268
[8] = system: ACHN
[9] = system: T47D
[10] = system: MDA-MB-231
[11] = system: K562
[12] = system: SK-MEL-5
[13] = system: NCI-H522
[14] = system: NCI/ADR-RES
[15] = system: MDA-N
[16] = system: M14
[17] = system: OVCAR-3
[18] = system: HOP-62

Measured: GI50

CC1(C)CC2(C)OC(=N)C1(C#N)C2(C#N)C#N (centres undefined)
inactive: [1] 16 µM | [2] 11.6 µM | [3] 17.4 µM | [4] 16.3 µM | [5] 15.2 µM | [6] 18.2 µM | [7] 15.6 µM | [8] 7.64 µM | [9] 10.7 µM | [10] 8.83 µM | [11] 6.93 µM | [12] 8.83 µM | [13] 2.44 µM | [14] 13 µM | [15] 7.08 µM | [16] 11.6 µM

CC1(c2ccccc2Cl)C(C#N)C(=O)NC(=O)C1C#N (centres undefined)
inactive: [1] > 10 µM | [2] 27.9 µM | [17] 17.8 µM | [3] 49.9 µM | [4] 32.7 µM | [5] 36.4 µM | [6] 35.6 µM | [7] 35.8 µM | [8] 34.8 µM | [18] 30.6 µM | [11] 27.4 µM | [12] 25.8 µM | [13] 20.8 µM | [16] 42.6 µM

COc1cccc(/C=C(\NC(C)=O)c2nc3cc(Cl)ccc3[nH]2)c1
inactive: [1] > 100 µM | [2] > 100 µM | [17] > 100 µM | [3] > 100 µM | [4] > 100 µM | [6] > 100 µM | [7] > 100 µM | [8] > 100 µM | [11] > 100 µM | [12] > 100 µM | [13] > 100 µM | [16] > 100 µM

O=C(COC(=O)c1cccc2c(=O)c3ccccc3[nH]c12)Nc1ccc(S(=O)(=O)Nc2ncccn2)cc1
inactive: [1] 43.9 µM | [2] 43.3 µM | [17] 22.6 µM | [4] 58.9 µM | [5] 95.5 µM | [6] 35.8 µM | [7] 37 µM | [8] 36.8 µM | [18] 41.6 µM | [11] 38.5 µM | [12] 82 µM | [13] 24.4 µM | [16] 93.1 µM

COc1ccc(-c2ccc(C(=O)C=P(c3ccccc3)(c3ccccc3)c3ccccc3)cc2)cc1
inactive: [1] 13.7 µM | [2] 13.2 µM | [17] 3.41 µM | [4] 10.4 µM | [5] 12.2 µM | [7] 24.3 µM | [8] 13.3 µM | [18] 17.9 µM | [9] 5.68 µM | [10] 15.9 µM | [11] 5 µM | [12] 9.64 µM | [14] 13 µM | [15] 13.2 µM | [16] 11.6 µM

COC(=O)C1C2CC3C(OC(=O)C31)C2I (centres undefined)
inactive: [1] > 100 µM | [2] > 10 µM | [17] > 100 µM | [3] > 100 µM | [4] > 100 µM | [5] > 100 µM | [6] > 100 µM | [7] > 100 µM | [8] > 100 µM | [18] > 100 µM | [11] > 100 µM | [12] > 100 µM | [13] > 100 µM | [16] > 100 µM

O=c1c2cccnc2ncn1CCCN1CCCC1
inactive: [1] > 100 µM | [2] > 100 µM | [17] > 100 µM | [3] > 100 µM | [4] > 100 µM | [6] > 100 µM | [7] > 100 µM | [8] > 100 µM | [18] > 100 µM | [11] > 100 µM | [12] > 100 µM | [13] > 100 µM | [16] > 100 µM

CNc1ccc([S+]([O-])Nc2ccccc2)cc1 (centres undefined)
inactive: [1] 21.8 µM | [17] 51.4 µM | [3] 86.3 µM | [4] 41.5 µM | [6] 56.2 µM | [7] 25.9 µM | [8] 84.7 µM | [18] 58.3 µM | [9] 19.5 µM | [10] 46.1 µM | [11] 34.8 µM | [12] 25.8 µM | [13] 19 µM | [14] 65.6 µM | [15] 46.1 µM

O=c1[nH]nc(Cc2ccccc2)n1C1CC1
inactive: [1] > 100 µM | [2] > 100 µM | [17] > 100 µM | [4] > 100 µM | [5] > 100 µM | [6] > 100 µM | [7] > 100 µM | [8] > 100 µM | [18] > 100 µM | [9] > 100 µM | [10] > 100 µM | [11] > 100 µM | [12] > 100 µM | [13] > 100 µM | [14] > 100 µM | [15] > 100 µM | [16] > 100 µM

C#Cc1cccc(NC(=O)/C=C\C(=O)O)c1
inactive: [1] > 100 µM | [3] > 100 µM | [4] > 100 µM | [5] > 100 µM | [6] > 100 µM | [7] > 100 µM | [8] > 100 µM | [11] > 100 µM | [12] > 100 µM | [13] > 100 µM

— ChEMBL document CHEMBL1201862, “PubChem BioAssay data set” (2004)
